{"source": "paper PMC10176470", "about": "“Engaging a Non-catalytic Cysteine Residue Drives Potent and Selective Inhibition of Caspase-6” (Journal of the American Chemical Society, 2023)", "type_in_all_cases": "cell-based", "key": {"[1]": {"target": "proteins of HEK293T cells transiently overexpressing caspase-6 (Homo sapiens, UniProt Q9Y224)", "sequence (Q9Y224 whole entry)": "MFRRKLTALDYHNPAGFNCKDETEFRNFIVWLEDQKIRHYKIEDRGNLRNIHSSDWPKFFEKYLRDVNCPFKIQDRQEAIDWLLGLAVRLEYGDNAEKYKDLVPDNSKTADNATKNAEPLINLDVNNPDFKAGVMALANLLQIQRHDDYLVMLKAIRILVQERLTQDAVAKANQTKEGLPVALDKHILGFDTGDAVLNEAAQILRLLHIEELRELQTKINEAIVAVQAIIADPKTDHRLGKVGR", "conditions": "Probe; protein C14orf166 Q9Y224"}, "[2]": {"target": "proteins of HEK293T cells transiently overexpressing caspase-6 (Homo sapiens, UniProt P14866)", "conditions": "exp_ref Probe; protein HNRNPL (P14866); analysis C6"}, "[3]": {"target": "proteins of HEK293T cells transiently overexpressing caspase-6 (Homo sapiens, UniProt P35908)", "sequence (P35908 whole entry)": "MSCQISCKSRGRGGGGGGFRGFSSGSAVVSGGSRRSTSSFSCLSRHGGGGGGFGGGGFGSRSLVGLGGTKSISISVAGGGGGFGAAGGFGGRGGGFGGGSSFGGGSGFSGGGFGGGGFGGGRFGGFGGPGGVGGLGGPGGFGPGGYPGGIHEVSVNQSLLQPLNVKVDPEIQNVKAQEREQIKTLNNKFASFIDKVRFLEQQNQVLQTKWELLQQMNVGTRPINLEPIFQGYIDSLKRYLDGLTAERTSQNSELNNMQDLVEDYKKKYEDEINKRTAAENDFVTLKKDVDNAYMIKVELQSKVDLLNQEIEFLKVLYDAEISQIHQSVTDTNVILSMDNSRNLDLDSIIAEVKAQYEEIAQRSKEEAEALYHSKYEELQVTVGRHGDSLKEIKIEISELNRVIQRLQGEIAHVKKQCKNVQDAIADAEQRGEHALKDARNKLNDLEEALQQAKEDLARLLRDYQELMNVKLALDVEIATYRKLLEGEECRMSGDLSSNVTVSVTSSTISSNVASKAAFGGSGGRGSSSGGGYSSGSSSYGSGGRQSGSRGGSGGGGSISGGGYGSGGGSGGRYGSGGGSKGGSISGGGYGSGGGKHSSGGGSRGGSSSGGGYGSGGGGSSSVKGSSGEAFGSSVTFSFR", "conditions": "Probe; protein KRT2 P35908"}, "[4]": {"target": "proteins of HEK293T cells transiently overexpressing caspase-6 (Homo sapiens, UniProt O14880)", "sequence (O14880 whole entry)": "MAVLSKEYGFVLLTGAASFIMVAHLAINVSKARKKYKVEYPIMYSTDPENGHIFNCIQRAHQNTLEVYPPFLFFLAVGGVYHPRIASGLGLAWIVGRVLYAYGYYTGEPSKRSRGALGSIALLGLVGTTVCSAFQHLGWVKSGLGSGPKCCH", "conditions": "exp_ref Probe; protein MGST3 (O14880); analysis C6"}, "[5]": {"target": "proteins of HEK293T cells transiently overexpressing caspase-6 (Homo sapiens, UniProt Q16658)", "conditions": "exp_ref Probe; protein FSCN1 (Q16658); analysis C6"}, "[6]": {"target": "proteins of HEK293T cells transiently overexpressing caspase-6 (Homo sapiens, UniProt P41250)", "sequence (P41250 37-739)": "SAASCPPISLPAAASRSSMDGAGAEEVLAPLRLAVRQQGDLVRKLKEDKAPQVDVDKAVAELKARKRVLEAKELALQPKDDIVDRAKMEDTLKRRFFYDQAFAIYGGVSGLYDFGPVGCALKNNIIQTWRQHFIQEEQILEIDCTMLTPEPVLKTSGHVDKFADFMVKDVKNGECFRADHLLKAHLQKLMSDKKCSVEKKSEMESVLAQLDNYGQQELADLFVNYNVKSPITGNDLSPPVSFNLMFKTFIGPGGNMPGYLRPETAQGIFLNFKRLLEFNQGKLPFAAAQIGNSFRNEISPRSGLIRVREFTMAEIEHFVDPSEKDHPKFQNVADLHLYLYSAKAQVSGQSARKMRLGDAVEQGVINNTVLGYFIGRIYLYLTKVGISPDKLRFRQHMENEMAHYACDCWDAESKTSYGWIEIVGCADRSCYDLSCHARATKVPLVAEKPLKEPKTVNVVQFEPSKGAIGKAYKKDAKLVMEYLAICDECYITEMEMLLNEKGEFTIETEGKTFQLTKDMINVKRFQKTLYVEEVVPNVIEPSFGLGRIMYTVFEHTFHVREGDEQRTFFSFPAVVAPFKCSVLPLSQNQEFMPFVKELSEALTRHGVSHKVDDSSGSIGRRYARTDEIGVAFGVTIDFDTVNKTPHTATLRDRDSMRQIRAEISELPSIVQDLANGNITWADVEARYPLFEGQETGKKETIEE", "conditions": "exp_ref Probe; protein GARS (P41250); analysis C6"}, "[7]": {"target": "T1, proteins of HEK293T cells transiently overexpressing caspase-6 (Homo sapiens, UniProt Q13642)", "T1 sequence (Q13642 1-323)": "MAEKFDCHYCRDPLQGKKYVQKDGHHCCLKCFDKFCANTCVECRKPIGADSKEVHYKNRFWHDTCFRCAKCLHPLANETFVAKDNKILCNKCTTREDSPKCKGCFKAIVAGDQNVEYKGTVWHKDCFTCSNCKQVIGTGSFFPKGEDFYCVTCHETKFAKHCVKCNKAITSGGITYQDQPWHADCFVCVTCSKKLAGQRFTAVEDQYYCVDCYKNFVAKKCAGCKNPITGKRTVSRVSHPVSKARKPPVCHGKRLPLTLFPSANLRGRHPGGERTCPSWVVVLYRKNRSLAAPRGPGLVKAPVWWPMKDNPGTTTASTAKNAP"}, "[8]": {"target": "proteins of HEK293T cells transiently overexpressing caspase-6 (Homo sapiens, UniProt Q14166)", "sequence (Q14166 whole entry)": "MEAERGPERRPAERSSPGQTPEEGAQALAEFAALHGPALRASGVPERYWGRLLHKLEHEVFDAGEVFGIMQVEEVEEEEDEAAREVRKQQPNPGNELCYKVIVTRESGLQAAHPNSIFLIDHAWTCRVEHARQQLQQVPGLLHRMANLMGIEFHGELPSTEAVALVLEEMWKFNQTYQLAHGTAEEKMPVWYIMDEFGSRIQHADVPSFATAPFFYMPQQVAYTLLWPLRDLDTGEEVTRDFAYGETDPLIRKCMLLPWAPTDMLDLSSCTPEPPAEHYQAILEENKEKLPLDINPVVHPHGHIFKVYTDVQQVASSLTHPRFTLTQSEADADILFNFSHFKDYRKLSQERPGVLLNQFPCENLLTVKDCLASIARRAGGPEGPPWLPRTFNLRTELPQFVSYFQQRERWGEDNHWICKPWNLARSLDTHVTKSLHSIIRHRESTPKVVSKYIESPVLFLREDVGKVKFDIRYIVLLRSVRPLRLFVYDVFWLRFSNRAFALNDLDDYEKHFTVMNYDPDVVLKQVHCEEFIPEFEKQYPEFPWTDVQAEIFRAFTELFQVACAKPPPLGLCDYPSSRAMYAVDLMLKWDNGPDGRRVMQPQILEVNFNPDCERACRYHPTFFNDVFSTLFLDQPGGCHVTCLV", "conditions": "exp_ref Probe; protein TTLL12 (Q14166); analysis C6"}, "[9]": {"target": "proteins of HEK293T cells transiently overexpressing caspase-6 (Homo sapiens, UniProt P09651)", "sequence (P09651 whole entry)": "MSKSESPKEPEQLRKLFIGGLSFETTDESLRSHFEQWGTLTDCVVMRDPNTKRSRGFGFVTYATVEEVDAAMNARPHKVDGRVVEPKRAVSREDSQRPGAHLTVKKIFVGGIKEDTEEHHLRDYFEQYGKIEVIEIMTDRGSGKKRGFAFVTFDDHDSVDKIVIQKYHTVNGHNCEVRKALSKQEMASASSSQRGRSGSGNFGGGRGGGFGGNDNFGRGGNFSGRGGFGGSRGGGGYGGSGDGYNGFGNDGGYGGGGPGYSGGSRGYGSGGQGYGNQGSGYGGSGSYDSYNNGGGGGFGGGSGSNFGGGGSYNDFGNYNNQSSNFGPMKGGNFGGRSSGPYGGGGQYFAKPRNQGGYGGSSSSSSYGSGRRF", "conditions": "protein HNRNPA1 (P09651)"}, "[10]": {"target": "proteins of HEK293T cells transiently overexpressing caspase-6 (Homo sapiens, UniProt P51991)", "conditions": "exp_ref Probe; protein HNRNPA3 (P51991); analysis C6"}, "[11]": {"target": "proteins of HEK293T cells transiently overexpressing caspase-6 (Homo sapiens, UniProt P10809)", "sequence (P10809 27-573)": "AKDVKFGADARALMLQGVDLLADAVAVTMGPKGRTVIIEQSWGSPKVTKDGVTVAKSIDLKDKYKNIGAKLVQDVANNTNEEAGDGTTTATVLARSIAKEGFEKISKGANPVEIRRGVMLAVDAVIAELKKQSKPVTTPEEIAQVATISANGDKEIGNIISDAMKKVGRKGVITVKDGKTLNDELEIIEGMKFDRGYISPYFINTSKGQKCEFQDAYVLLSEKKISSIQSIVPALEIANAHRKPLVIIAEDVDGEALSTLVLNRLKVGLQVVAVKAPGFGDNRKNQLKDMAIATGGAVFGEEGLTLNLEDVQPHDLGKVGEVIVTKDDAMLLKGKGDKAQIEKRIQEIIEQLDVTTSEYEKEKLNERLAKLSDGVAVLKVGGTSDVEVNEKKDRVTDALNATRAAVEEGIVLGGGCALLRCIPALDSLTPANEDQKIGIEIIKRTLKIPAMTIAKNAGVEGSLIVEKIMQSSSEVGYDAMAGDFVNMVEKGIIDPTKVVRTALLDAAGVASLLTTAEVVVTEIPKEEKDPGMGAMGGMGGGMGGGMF", "conditions": "protein HSPD1 (P10809)"}, "[12]": {"target": "proteins of HEK293T cells transiently overexpressing caspase-6 (Homo sapiens, UniProt Q9Y6C9)", "conditions": "protein MTCH2 (Q9Y6C9); exp_ref Probe; analysis C6"}, "[13]": {"target": "proteins of HEK293T cells transiently overexpressing caspase-6 (Homo sapiens, UniProt P62913)", "conditions": "protein RPL11 (P62913)"}, "[14]": {"target": "proteins of HEK293T cells transiently overexpressing caspase-6 (Homo sapiens, UniProt P62263)", "conditions": "exp_ref Probe; protein RPS14 (P62263); analysis C6"}, "[15]": {"target": "proteins of HEK293T cells transiently overexpressing caspase-6 (Homo sapiens, UniProt Q86VP6)", "sequence (Q86VP6 whole entry)": "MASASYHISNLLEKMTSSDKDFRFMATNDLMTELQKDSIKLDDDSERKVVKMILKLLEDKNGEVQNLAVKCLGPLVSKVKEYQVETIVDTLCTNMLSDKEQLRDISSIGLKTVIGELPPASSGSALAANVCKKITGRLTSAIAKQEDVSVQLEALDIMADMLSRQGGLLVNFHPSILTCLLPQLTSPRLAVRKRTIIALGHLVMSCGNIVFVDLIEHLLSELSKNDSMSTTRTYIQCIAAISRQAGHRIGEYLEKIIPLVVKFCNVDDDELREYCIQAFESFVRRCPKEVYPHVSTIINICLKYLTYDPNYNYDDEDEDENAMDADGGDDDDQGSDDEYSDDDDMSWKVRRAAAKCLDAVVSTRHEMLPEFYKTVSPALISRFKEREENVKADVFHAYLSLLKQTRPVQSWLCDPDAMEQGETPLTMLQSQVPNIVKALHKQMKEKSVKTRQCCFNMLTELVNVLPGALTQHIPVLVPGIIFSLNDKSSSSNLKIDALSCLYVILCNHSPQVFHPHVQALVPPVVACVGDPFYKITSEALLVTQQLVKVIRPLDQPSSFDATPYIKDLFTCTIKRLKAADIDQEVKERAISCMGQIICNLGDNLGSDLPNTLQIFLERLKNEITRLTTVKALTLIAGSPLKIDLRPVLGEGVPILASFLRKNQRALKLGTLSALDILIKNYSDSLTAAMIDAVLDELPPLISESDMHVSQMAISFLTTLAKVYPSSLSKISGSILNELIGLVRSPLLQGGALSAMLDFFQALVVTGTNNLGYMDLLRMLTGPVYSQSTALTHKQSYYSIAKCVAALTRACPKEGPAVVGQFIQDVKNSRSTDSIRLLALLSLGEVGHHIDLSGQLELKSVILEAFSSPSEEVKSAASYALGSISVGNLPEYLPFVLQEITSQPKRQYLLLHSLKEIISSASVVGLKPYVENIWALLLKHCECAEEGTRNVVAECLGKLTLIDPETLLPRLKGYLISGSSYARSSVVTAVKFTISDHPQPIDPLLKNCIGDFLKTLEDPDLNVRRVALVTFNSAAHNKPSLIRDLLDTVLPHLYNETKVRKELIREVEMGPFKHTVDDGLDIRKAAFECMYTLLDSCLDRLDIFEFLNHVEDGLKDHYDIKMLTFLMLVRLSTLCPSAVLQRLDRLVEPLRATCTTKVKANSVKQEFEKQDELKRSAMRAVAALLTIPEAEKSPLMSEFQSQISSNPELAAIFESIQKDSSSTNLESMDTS", "conditions": "exp_ref Probe; protein CAND1 (Q86VP6); analysis C6"}, "[16]": {"target": "proteins of HEK293T cells transiently overexpressing caspase-6 (Homo sapiens, UniProt P32119)", "sequence (P32119 whole entry)": "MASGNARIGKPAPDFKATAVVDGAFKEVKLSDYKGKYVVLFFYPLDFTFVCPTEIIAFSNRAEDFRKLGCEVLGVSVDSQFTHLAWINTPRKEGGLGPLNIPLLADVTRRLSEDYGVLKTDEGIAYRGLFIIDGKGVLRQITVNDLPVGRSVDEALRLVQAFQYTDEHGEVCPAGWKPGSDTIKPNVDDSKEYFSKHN", "conditions": "exp_ref Probe; protein PRDX2 (P32119); analysis C6"}, "[17]": {"target": "T2, proteins of HEK293T cells transiently overexpressing caspase-6 (Homo sapiens, UniProt P05165)", "T2 sequence (P05165 53-728)": "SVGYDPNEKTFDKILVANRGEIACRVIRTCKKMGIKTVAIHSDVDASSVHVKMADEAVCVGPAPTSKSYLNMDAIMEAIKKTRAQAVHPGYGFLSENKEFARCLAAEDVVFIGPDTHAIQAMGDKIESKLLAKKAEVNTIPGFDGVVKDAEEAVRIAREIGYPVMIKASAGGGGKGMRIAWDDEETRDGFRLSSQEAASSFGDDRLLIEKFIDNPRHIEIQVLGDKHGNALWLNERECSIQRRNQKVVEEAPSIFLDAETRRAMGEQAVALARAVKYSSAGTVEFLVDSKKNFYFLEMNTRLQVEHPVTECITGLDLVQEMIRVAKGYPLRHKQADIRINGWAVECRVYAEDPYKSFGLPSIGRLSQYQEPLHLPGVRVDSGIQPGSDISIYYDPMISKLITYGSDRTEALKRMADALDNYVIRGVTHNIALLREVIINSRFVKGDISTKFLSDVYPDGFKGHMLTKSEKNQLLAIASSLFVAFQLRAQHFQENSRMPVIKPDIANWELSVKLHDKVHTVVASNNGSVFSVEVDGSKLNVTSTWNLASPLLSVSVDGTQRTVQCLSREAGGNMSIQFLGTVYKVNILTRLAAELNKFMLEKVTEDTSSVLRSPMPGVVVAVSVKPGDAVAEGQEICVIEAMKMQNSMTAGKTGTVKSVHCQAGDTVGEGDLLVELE"}, "[18]": {"target": "proteins of HEK293T cells transiently overexpressing caspase-6 (Homo sapiens, UniProt Q06830)", "sequence (Q06830 whole entry)": "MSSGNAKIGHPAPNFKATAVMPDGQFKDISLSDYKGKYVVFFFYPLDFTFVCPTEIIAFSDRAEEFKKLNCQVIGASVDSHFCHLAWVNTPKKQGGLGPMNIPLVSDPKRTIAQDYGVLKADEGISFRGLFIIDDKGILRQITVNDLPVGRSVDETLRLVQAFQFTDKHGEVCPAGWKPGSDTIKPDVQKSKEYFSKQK", "conditions": "exp_ref Probe; protein PRDX1 (Q06830); analysis C6"}}}
{"compound": "C#CCOc1ccc([C@@H]2C[C@@H](C(=O)Nc3ccc(OC(F)(F)F)cc3)CN(S(=O)(=O)C=C)C2)cc1", "note": "(relative stereo) [13-t]", "values": [{"measurement": "enrich.exp.med", "setting": "[1]", "value": -1.579}, {"measurement": "enrich.exp.med", "setting": "[2]", "value": 0.1244}, {"measurement": "enrich.exp.med", "setting": "[3]", "value": -8.257}, {"measurement": "enrich.exp.med", "setting": "[4]", "value": 1.143}, {"measurement": "enrich.exp.med", "setting": "[5]", "value": 0.2175}, {"measurement": "enrich.exp.med", "setting": "[6]", "value": 1.008}, {"measurement": "enrich.exp.med", "setting": "[7]; Probe, protein FHL1 Q13642", "value": -0.95}, {"measurement": "enrich.exp.med.lin", "setting": "[7]; protein FHL1 (Q13642)", "value": 0.5176}, {"measurement": "enrich.exp.med.log2", "setting": "[7]; protein FHL1 (Q13642)", "value": -0.95}, {"measurement": "enrich.exp.med", "setting": "[8]", "value": -0.1545}, {"measurement": "enrich.exp.med", "setting": "[9]; exp_ref Probe, analysis C6", "value": 0.3216}, {"measurement": "enrich.exp.med.lin", "setting": "[9]", "value": 1.2497}, {"measurement": "enrich.exp.med.log2", "setting": "[9]", "value": 0.3216}, {"measurement": "enrich.exp.med", "setting": "[10]", "value": 0.2112}, {"measurement": "enrich.exp.med", "setting": "[11]; exp_ref Probe, analysis C6", "value": 0.7989}, {"measurement": "enrich.exp.med.lin", "setting": "[11]", "value": 1.7398}, {"measurement": "enrich.exp.med.log2", "setting": "[11]", "value": 0.7989}, {"measurement": "enrich.exp.med", "setting": "[12]", "value": 1.32}, {"measurement": "enrich.exp.med.lin", "setting": "[13]", "value": 2.408}, {"measurement": "enrich.exp.med.log2", "setting": "[13]", "value": 1.268}, {"measurement": "enrich.exp.med", "setting": "[13]; exp_ref Probe, analysis C6", "value": 1.268}, {"measurement": "enrich.exp.med", "setting": "[14]", "value": -0.03314}, {"measurement": "enrich.exp.med", "setting": "[15]", "value": 0.5563}, {"measurement": "enrich.exp.med", "setting": "[16]", "value": 0.2933}, {"measurement": "enrich.exp.med", "setting": "[17]; Probe, protein PCCA P05165", "value": -2.194}, {"measurement": "enrich.exp.med.lin", "setting": "[17]; protein PCCA (P05165)", "value": 0.2185}, {"measurement": "enrich.exp.med.log2", "setting": "[17]; protein PCCA (P05165)", "value": -2.194}, {"measurement": "enrich.exp.med", "setting": "[18]", "value": -0.1545}]}
